# Assay results: patent US20250092065A1, “2-(INDAZOL-5-YL)-6-(PIPERIDIN-4-YL)-1,7-NAPHTHYRIDINE DERIVATIVES AND RELATED COMPOUNDS AS MODULATORS FOR SPLICING NUCLEIC ACIDS AND FOR THE TREATMENT OF PROLIFERATIVE DISEASES” (REMIX THERAPEUTICS INC., priority 2022, published 2025)
# Like-named read-outs stand apart in the source and are kept apart here.
# Experiments:
# MYB = experiment: HiBiT protein abundance assay, MYB (K562 HiBiT knock-in); assay type: cell-based, human; conditions: HiBiT knock-in K562 cells, 24 hours, top dose 10 μM
# Procedure, shortened: (§1)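 K562 HiBiT knock-in, 24 h, 37 °C, top 10 μM final, 3-fold ×10, DMSO ≤0.25%. Lytic HiBiT luminescence; PC = parental K562, NC = DMSO; 4PL IC50.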
# Target C = experiment: HiBiT protein abundance assay, Target C (K562 HiBiT knock-in); assay type: cell-based, human; conditions: HiBiT knock-in K562 cells, 24 hours, top dose 10 μM
# Procedure, shortened: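 K562 HiBiT knock-in cells (10000/well) were treated 24 h at 37° C with a 10-point 3-fold dilution series (top 10 μM final, ≤0.25% DMSO). HiBiT luminescence was read after lytic LgBiT detection. Percent response used unmodified K562 and DMSO-treated knock-in controls, and IC50 came from a four-parameter fit at 50% of untreated.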
# HTT mRNA = experiment: RT-qPCR splicing assay, HTT mRNA canonical (CJ) and alternative (AJ) junction; assay type: cell-based, human; conditions: Homo sapiens; for AC50: HTT alternative junction mRNA, read-out: HTT AJ (increase in AJ mRNA, AC50)
# Procedure, shortened: (§2)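 Junction-specific RT-qPCR read-out: CJ and AJ isoform levels, housekeeper-normalized (GAPDH/GUSB/PPIA), ΔΔCt vs DMSO, converted to RQ then % response. Cells: A673 (DMEM/10% FBS, adhered 24 h) or K562 (IMDM/10% FBS). Compound 11-pt 3-fold, top 10 uM, 24 h, 37 °C.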
# MYB mRNA = experiment: RT-qPCR splicing assay, MYB mRNA canonical (CJ) and alternative (AJ) junction; assay type: cell-based, human; conditions: Homo sapiens; for AC50: MYB alternative junction mRNA, read-out: MYB AJ (increase in AJ mRNA, AC50)
# Procedure, shortened: as §2
# HTT = experiment: HiBiT protein abundance assay, HTT (K562 HiBiT knock-in); assay type: cell-based, human; conditions: HiBiT knock-in K562 cells, 24 hours, top dose 10 μM
# Procedure, shortened: as §1
# K562 cells = experiment: Cell Titer Glo 2.0 cell viability (toxicity) assay, K562; conditions: 500 cells/well, 72 hours
# SMN2 mRNA = experiment: RT-qPCR splicing assay, SMN2 mRNA; assay type: cell-based, human; conditions: Homo sapiens, canonical junction qPCR panel, Table 4; read-out: SMN2 IC50 (decrease in CJ mRNA levels)
# Procedure, shortened: as §2
# [1] = HTT canonical junction mRNA, RT-qPCR, read-out: HTT CJ (decrease in CJ mRNA levels, IC50)
# [2] = canonical junction qPCR panel, Table 4, read-out: HTT IC50 (decrease in CJ mRNA levels)
# [3] = MYB canonical junction mRNA, RT-qPCR, read-out: MYB CJ (decrease in CJ mRNA levels, IC50)
# [4] = canonical junction qPCR panel, Table 4, read-out: MYB IC50 (decrease in CJ mRNA levels)
Compound,IC50 (MYB) [nM],IC50 (Target C) [nM],AC50 (HTT mRNA; RT-qPCR) [nM],IC50 (HTT mRNA; [1]) [nM],IC50 (HTT mRNA; [2]) [nM],AC50 (MYB mRNA; RT-qPCR) [nM],IC50 (MYB mRNA; [3]) [nM],IC50 (MYB mRNA; [4]) [nM],IC50 (HTT) [nM],"Effect of Exemplary Compounds on Cell Viability, K562 (K562 cells)",IC50 (SMN2 mRNA) [nM]
Cc1nc2cc(O)c(-c3ccc4nc(N5CC[C@H](NC6CC6)C5)ccc4n3)cc2o1 [Compound 211],< 100,< 100,< 100,< 100,< 100,< 100,< 100,< 100,< 100,B (B represents 100-1000 nM),< 100
Cc1nc2cc(O)c(-c3ccc4nc(N5CC[C@@H](NC6CC6)C5)ccc4n3)cc2o1 [Compound 212],100 to 1000,100 to 1000,< 100,< 100,< 100,100 to 1000,100 to 1000,100 to 1000,< 100,B (B represents 100-1000 nM),< 100
Cc1nc2c(C)c(O)c(-c3ccc4nc(N5CC[C@@H](NC(C)(C)C)C5)ccc4n3)cc2o1 [Compound 215],< 100,< 100,< 100,< 100,< 100,< 100,< 100,< 100,< 100,A (A represents <100 nM),< 100
Cn1cc2cc(-c3cc4ccc(N5CCC(NC(C)(C)C)C5)nc4cn3)c(O)cc2n1 (centres unmarked) [Compound 218],1000 to 10000,> 10000,> 10000,> 10000,> 10000,1000 to 10000,> 10000,> 10000,> 10000,C (C represents 1000-9999 nM),100 to 1000
Cn1cc2cc(-c3ccc4nc(N5CC[C@@H](NC6(C)CC6)C5)ccc4n3)c(O)cc2n1 [Compound 220],< 100,< 100,< 100,< 100,< 100,< 100,< 100,< 100,< 100,A (A represents <100 nM),< 100
Cn1cc2cc(-c3ccc4nc(N5CC[C@H](NC6(C)CC6)C5)ccc4n3)c(O)cc2n1 [Compound 221],< 100,< 100,< 100,< 100,< 100,< 100,< 100,< 100,< 100,B (B represents 100-1000 nM),< 100
Cn1cc2cc(-c3ccc4nc(N5CC[C@H](NC6(C)CC6)C5)ccc4n3)c(O)c(F)c2n1 [Compound 222],< 100,< 100,< 100,< 100,< 100,< 100,< 100,< 100,< 100,B (B represents 100-1000 nM),< 100
Cn1cc2cc(-c3ccc4nc(N5CC[C@@H](NC6(C)CC6)C5)ccc4n3)c(O)c(F)c2n1 [Compound 223],< 100,< 100,< 100,< 100,< 100,< 100,< 100,< 100,< 100,A (A represents <100 nM),< 100
Cc1c(O)c(-c2ccc3nc(N4CCC(NC5(C)CC5)C4)ccc3n2)cc2cn(C)nc12 (centres unmarked) [Compound 224],< 100,< 100,< 100,< 100,< 100,< 100,< 100,< 100,< 100,B (B represents 100-1000 nM),< 100
Cc1c(O)c(-c2ccc3nc(N4CC[C@@H](NC5(C)CC5)C4)ccc3n2)cc2cn(C)nc12 [Compound 225],< 100,< 100,< 100,< 100,< 100,< 100,< 100,< 100,< 100,B (B represents 100-1000 nM),< 100
Cc1c(O)c(-c2ccc3nc(N4CC[C@H](NC5(C)CC5)C4)ccc3n2)cc2cn(C)nc12 [Compound 226],< 100,< 100,< 100,< 100,< 100,100 to 1000,< 100,< 100,< 100,B (B represents 100-1000 nM),< 100
Cc1nc2cc(O)c(-c3ccc4nc(N5CCC(NC6CCC6)C5)ccc4n3)cc2o1 (centres unmarked) [Compound 228],< 100,100 to 1000,< 100,< 100,< 100,< 100,100 to 1000,100 to 1000,< 100,B (B represents 100-1000 nM),< 100
Cc1nc2cc(O)c(-c3ccc4nc(N5CC[C@@H](NC(C)C)C5)ccc4n3)cc2o1 [Compound 232],< 100,< 100,< 100,< 100,< 100,< 100,< 100,< 100,< 100,A (A represents <100 nM),< 100
Cc1nc2cc(O)c(-c3ccc4nc(N5CC[C@H](NC(C)C)C5)ccc4n3)cc2o1 [Compound 233],< 100,< 100,< 100,< 100,< 100,< 100,< 100,< 100,< 100,B (B represents 100-1000 nM),< 100
Cc1nc2cc(O)c(-c3ccc4nc(N5CCC(N)C5)ccc4n3)cc2o1 (centres unmarked) [Compound 234],< 100,< 100,< 100,100 to 1000,100 to 1000,< 100,100 to 1000,100 to 1000,< 100,A (A represents <100 nM),< 100
Cn1cc2cc(-c3ccc4nc(N5CCC(N)C5)ccc4n3)c(O)c(F)c2n1 (centres unmarked) [Compound 238],< 100,< 100,< 100,< 100,< 100,< 100,< 100,< 100,< 100,A (A represents <100 nM),< 100
Cn1cc2cc(-c3ccc4nc(N5CC[C@@H](NCC(F)(F)F)C5)ccc4n3)c(O)cc2n1 [Compound 245],> 10000,> 10000,> 10000,> 10000,> 10000,> 10000,> 10000,> 10000,1000 to 10000,D (D represents greater than 10 μM in K562 cells),1000 to 10000
Cn1cc2cc(-c3ccc4nc(N5CC[C@@H](N[C@H]6C[C@H](F)C6)C5)ccc4n3)c(O)cc2n1 [Compound 246],< 100,< 100,< 100,< 100,< 100,< 100,< 100,< 100,< 100,B (B represents 100-1000 nM),< 100
Cn1cc2cc(-c3ccc4nc(N5CC[C@H](N[C@H]6C[C@H](F)C6)C5)ccc4n3)c(O)cc2n1 [Compound 247],100 to 1000,100 to 1000,100 to 1000,< 100,< 100,< 100,< 100,< 100,100 to 1000,B (B represents 100-1000 nM),< 100
